Experimental data taken from PMC4033217, “Characterization of Novel PI3Kδ Inhibitors as Potential Therapeutics for SLE and Lupus Nephritis in Pre-Clinical Studies” (Frontiers in Immunology, 2014).

Legend:
NZB/W F1 mice [1] = assay: IFNα-accelerated NZB/W F1 mouse SLE model; assay type: in vivo
Description: (§1) All protocols and procedures were conducted according to German animal protection law (Tierschutzgesetz) and were approved by the local veterinarian authorities (Regierungspräsidium, Darmstadt, Germany). Ten-week-old female NZB/W F1 mice (Jackson Laboratories, Bar Harbor, ME, USA) were given a single i.v. injection of 1 × 10^8 IU/100 μl of AdV-IFN-α (adenovirus with mmIfna5_v1 insert, Biofocus, CoA.NL.09.160) in saline or left untreated (sham). Drug treatments were either initiated at 2 weeks (early intervention regimen) or 4 weeks (late intervention regimen) post AdV-IFN-α delivery until the end of the experiment (at 10 weeks). […] Serum and urine samples were collected for anti-dsDNA antibodies (by ELISA) and urinary protein creatinine ratio (UPCR) (measured by ADVIA 1800) determination, respectively, on the days indicated. Proteinuria is defined as UPCR >3.

NZB/W F1 mice [2] = assay: Lymphocyte subsets in spleen at end of treatment, accelerated NZB/W F1 SLE model; assay type: in vivo, mouse; conditions: MMF 300 mg/kg once daily, early intervention
Description: as §1

CD69 on B220+ B cells = assay: Ex vivo anti-IgD-induced CD69 up-regulation in the SLE model; design: species or system mouse; conditions: once daily for 2 weeks, 1 h after last dosing
BXSB mice = tested on: BXSB mice; design: method as in PMID 24445960; conditions: cited from earlier work

| SMILES | Protection against proteinuria (NZB/W F1 mice [1]; early intervention, MSC2360844 66 mg/kg or MMF 300 mg/kg once daily oral) | Serum anti-dsDNA IgG (NZB/W F1 mice [1]; early treatment, neither statistically significant nor dose-dependent) | No. of cells (×10^6) (mean ± SD): B220^+CD19^+ (total B cells) (NZB/W F1 mice [2]) | No. of cells (×10^6) (mean ± SD): CD3^+ (total T-cells) (NZB/W F1 mice [2]) | No. of cells (×10^6) (mean ± SD): CD138^+ (plasma cells) (NZB/W F1 mice [2]) | No. of cells (×10^6) (mean ± SD): GL-7^+IgG^− (GC B cells) (NZB/W F1 mice [2]) | No. of cells (×10^6) (mean ± SD): IgG^+ (class-switched B cells) (NZB/W F1 mice [2]) | No. of cells (×10^6) (mean ± SD): Total splenocytes (NZB/W F1 mice [2]) | No. of cells (×10^6) (mean ± SD): activated CD4^+ T-cells (NZB/W F1 mice [2]) | No. of cells (×10^6) (mean ± SD): activated CD8^+ T-cells (NZB/W F1 mice [2]) | Ex vivo anti-IgD-induced CD69 surface expression on B220+ B cells (CD69 on B220+ B cells) | Autoantibody production and kidney pathology (BXSB mice) |
| --- | --- | --- | --- | --- | --- | --- | --- | --- | --- | --- | --- | --- |
| COc1c(C)c2c(c(O)c1C/C=C(\C)CCC(=O)OCCN1CCOCC1)C(=O)OC2 [MMF, mycophenolate mofetil] | almost completely protected against proteinuria | tendency of serum anti-dsDNA IgG reduction | 20.65 (±6.54) ×10^6 | 21.05 (±6.83) ×10^6 | 0.43 (±0.28) ×10^6 | 0.23 (±0.16) ×10^6 | 0.17 (±0.05) ×10^6 | 46.50 (±25.17) ×10^6 | 5.24 (±2.05) ×10^6 | 0.23 (±0.09) ×10^6 | indistinguishable from untreated mice | – |
| Cc1ccccc1-n1c(Cn2cnc3c(N)ncnc32)nc2cccc(C)c2c1=O [IC87114] | – | – | – | – | – | – | – | – | – | – | – | decreases autoantibody production and kidney pathology |
